Among the data in ChEMBL document CHEMBL1781885, “Cytotoxic norsesquiterpene peroxides from the endophytic fungus Talaromyces flavus isolated from the mangrove plant Sonneratia apetala” (J Nat Prod, 2011) are IC50, Activity and LD50 values, retold here.

The subject of series [1] is PC-3. Briefly: Cytotoxicity against human PC3 cells after 6 days by MTT method. It is filed as functional, cell-based. The following applies: PC-3, 144 h. In general terms: Tetrazolium dyes change colour on reduction, which living cells bring about.
For series [2], the system named is HepG2. Nature of the series: Cytotoxicity against human HepG2 after 6 days by MTT method. It is filed as functional, cell-based. The following applies: HepG2, 144 h.
The test system of series [3] is Sarcina ventriculi. Briefly: Antimicrobial activity against Sarcina ventriculi ATCC 29068 at 50 ug/ml. It is filed as functional.
The test system of series [4] is Staphylococcus aureus. Nature of the series: Antimicrobial activity against Staphylococcus aureus ATCC 27154 at 50 ug/ml. It is filed as functional, organism-based.
The test system of series [5] is Pseudomonas aeruginosa. Nature of the series: Antimicrobial activity against Pseudomonas aeruginosa ATCC 25668 at 50 ug/ml. In kind it is functional, organism-based.
The subject of series [6] is Aspergillus niger. Briefly: Antimicrobial activity against Aspergillus niger ATCC 13496 at 50 ug/ml. It is filed as functional, organism-based.
The subject of series [7] is Candida albicans. Nature of the series: Antimicrobial activity against Candida albicans ATCC 10231 at 50 ug/ml. In kind it is functional, organism-based.
Series [8] deals with Escherichia coli. Briefly: Antimicrobial activity against Escherichia coli ATCC 25922 at 50 ug/ml. In kind it is functional, organism-based.
In series [9] the test system is HeLa. Nature of the series: Cytotoxicity against human HeLa cells after 6 days by MTT method. The following applies: 144 h. It is filed as functional, cell-based.
Series [10] deals with MDA-MB-435. Briefly: Cytotoxicity against human MDA-MB-435 after 6 days by MTT method. It is filed as functional, cell-based. Conditions: MDA-MB-435, 144 h.
Series [11] concerns MCF7. Briefly: Cytotoxicity against human MCF7 cells after 6 days by MTT method. It is filed as functional, cell-based. Conditions: MCF7, 144 h.
For series [12], the system named is Artemia salina. Briefly: Toxicity in Artemia salina. Conditions: in vivo. In kind it is organism-based.

Each structure is given as a SMILES string. Converted amounts (≈) assume the structure as drawn. The source made the active and inactive calls. No cut-off for these calls is given here.

The IC50 is the concentration needed to halve the response being measured. The low end stands for greater potency in that assay, the high end for weaker potency in that assay. Turning to `CC1(C)CCC(=O)[C@@]2(C)OO[C@@H]3C[C@@]12CC[C@H]3O` [MERULIN A], the IC50 turned out to be 1.82 µg/mL (≈ 7.16 µM) in series [1]; 6.79 µg/mL (≈ 26.7 µM) in series [2]; 7.97 µg/mL (≈ 31.3 µM) in [9]; 1.9 µg/mL (≈ 7.47 µM) in series [10]; 4.17 µg/mL (≈ 16.4 µM) in series [11]. The outcome in [3], in series [4], in [5], in series [6], in series [7] and in series [8] was inactive. In series [12], this molecule yielded an LD50 of less than 10 ppm.
Turning to `CC(=O)O[C@H]1CC[C@]23C[C@@H]1OO[C@]2(C)C(=O)CCC3(C)C` [TALAPEROXIDE A], the IC50 in series [1] was found to be 5.7 µg/mL (≈ 19.2 µM); in series [2], 12.9 µg/mL (≈ 43.6 µM); in series [9] it was 13.7 µg/mL (≈ 46.2 µM); in series [10], 11.8 µg/mL (≈ 39.7 µM); in [11] it was 19.8 µg/mL (≈ 66.7 µM). For the same molecule, the outcome in [3], in series [4], in [5], in series [6], in series [7] and in [8] was inactive. This molecule showed an LD50 in series [12] of less than 10 ppm.
Regarding `CC1(C)CCC(=O)[C@@]2(C)OO[C@H]3C[C@]12CCC3=O` [TALAPEROXIDE C], the IC50 in series [1] was 4.34 µg/mL (≈ 17.2 µM); in [2] it was 15.1 µg/mL (≈ 59.9 µM); in series [9], 12.7 µg/mL (≈ 50.4 µM); in [10] it was 2.64 µg/mL (≈ 10.5 µM); in series [11], 6.63 µg/mL (≈ 26.3 µM). Further, the result in series [3], in series [4], in series [5], in series [6], in series [7] and in series [8] was inactive. Besides, in series [12], the LD50 is on record as less than 10 ppm.
On to `COc1cccc2c1C(=O)c1c(O)c3c(c(O)c1C2=O)C[C@@](O)(C(=O)CO)C[C@@H]3O[C@H]1C[C@H](N)[C@@H](O)[C@H](C)O1` [EPIRUBICIN], for which the IC50 in [1] came to 0.16 µg/mL (≈ 0.294 µM); in series [2] it was 0.56 µg/mL (≈ 1.03 µM); in series [10], 0.33 µg/mL (≈ 0.607 µM); in [11], 0.56 µg/mL (≈ 1.03 µM).
In the case of `CC1(C)CCC(=O)[C@]2(C)OO[C@H]3C[C@]12CCC3=O` [TALAPEROXIDE D], the IC50 was found to be 0.7 µg/mL (≈ 2.77 µM) in series [1]; 0.9 µg/mL (≈ 3.57 µM) in [2]; 1.31 µg/mL (≈ 5.19 µM) in [9]; 0.91 µg/mL (≈ 3.61 µM) in series [10]; 1.92 µg/mL (≈ 7.61 µM) in series [11]. Also, the result in series [3], in series [4], in [5], in series [6], in [7] and in series [8] was inactive. Besides, in series [12], the LD50 is reported as less than 10 ppm.
With `CC(=O)O[C@H]1CC[C@]23C[C@@H]1OO[C@@]2(C)C(=O)CCC3(C)C` [TALAPEROXIDE B], the IC50 in series [1] came out at 0.89 µg/mL (≈ 3 µM); in [2], 1.29 µg/mL (≈ 4.35 µM); in [9] it was 1.73 µg/mL (≈ 5.84 µM); in [10], 2.78 µg/mL (≈ 9.38 µM); in series [11], 1.33 µg/mL (≈ 4.49 µM). For the same molecule, the outcome in [3], in [4], in [5], in [6], in series [7] and in series [8] was inactive. The molecule also came in with an LD50 in [12] of less than 10 ppm.
